Earlier results on 2 compounds are cited in article PMC4263154 (Journal of Clinical Pharmacology, 2013).

Test in data set [1]: not given
This is another data set of the same source.

“Also recorded” adds a separate entry of the source. Like-named read-outs stand apart in the source and are kept apart here.

Take `CC(=O)N[C@@H](C)c1cc(Cl)ccc1C1CCN(C(=O)[C@@H]2CN(C(C)(C)C)C[C@H]2c2ccc(F)cc2F)CC1` [MK-0493]: the “effect on body weight and energy intake” value (Phase 1 and 2 clinical trials) is reported as “failed to demonstrate effect; also recorded: lack of efficacy”. The erectogenic effect result (clinical trial) is given as “failed to demonstrate the same effect”.

As for melanotan-II, the figures for the “effect on food intake or energy expenditure” value in the data set with MC4R (MC4R knock-out mice) and with MC4R (wild-type mice) were “no effect” and “did exert these effects”, respectively. Besides, the sexual arousal result in data set [1] (females with sexual behavior disorders) is on record as “arousal”. Further, the erectogenic activity result in data set [1] (males with erectile dysfunction) is on record as “erectogenic activity”.
